According to US9377472B2, “Biological complex specific for Alzheimer's disease detection in vitro and use thereof” (Amoneta Diagnostics, priority 2012, dated 2016):

Tests used:
[1] = test system: PC12 cells; assay: Calcium imaging (Fura-2) of differentiated PC12 cells after acute and/or chronic Aβ peptide application; type: cell-based, rat; conditions: preincubated overnight at low concentration (10 nM), then acute 1 μM Aβ1-42
Description: PC12 rat pheochromocytoma cells were cultured in RPMI 1640 medium (InVitrogen) supplemented with 5% heat-inactivated horse serum, 10% foetal bovine serum (Dominique Dutcher) and antibiotics (penicillin 100 U/ml, streptomycin 100 U/ml, Sigma) at 37° C. in 5% CO2. PC12 cells were reseeded once a week. Before use, cells were platted in 35 mm glass-bottom culture dishes coated with type I collagen and Poly-L-ornithine; NGF (50 μg/1, Sigma) was added in the culture medium to induce their neuronal differentiation. Cells were used after 5 days in vitro, when they express a complete neuronal phenotype (neurite like extensions, voltage dependent ionic channels, neurotransmitters receptors and neurotransmitter secretion capacities).
PC12 cells platted on glass-bottom culture dishes were loaded with Fura-2 AM (1 μM, InVitrogen) and pluronic acid (InVitrogen) in a Hepes buffer for 20 min at 37° C. […] Fluorescence was excited by a xenon lamp equipped with two alternating filters allowing a fluorescence excitation at 350 nm for Ca^2+-bound Fura-2 and at 380 nm for Ca^2+-unbound Fura-2. Image pairs were recorded during 20 minutes every 5 seconds using an EM-CCD camera (Hamamatsu Photonics). Emitted fluorescence intensities (510 nm) were measured from regions of interest centered on individual cells. Normalized ratios were calculated. […]

[2] = test system: PC12 cells; assay: Immunocytochemistry of Aβ oligomers bound to PC12 cells (A11 antibody); type: cell-based, rat
Description: In an attempt to characterise the tertiary form of the peptide bound to the cells and responsible for the priming effect that was observed immunocytochemical experiments were performed: PC12 cells were plated on poly-L-ornithine coated coverslips and maintained for 5 days in culture media supplemented with NGF to induce neuronal differentiation at 37° C. According to experimental conditions, PC 12 cells have undergone a chronic treatment and/or an acute treatment (see Example 1). Cells were subsequently rinsed to eliminate unbound Aβ and fixed with 4% paraformaldehyde in phosphate buffered saline (PBS) for 10 minutes. PC12 cells were then incubated in a blocking solution (3% Bovine Serum Albumin in PBS) for 1 hour at room temperature. A rabbit polyclonal antibody A11 (Millipore) directed against Aβ oligomers diluted 1:1500 in blocking solution was applied to the cells overnight at 4° C. Cells were washed three times for 10 minutes with the blocking solution and incubated with the appropriate secondary Dylight 549-conjugated antibody goat […], (Jackson Immunoresearch, diluted 1:2000) for 2 hours at room temperature, washed 3×10 minutes in PBS and mounted in Mowiol.
Panel G of FIG. 2(g) represents the quantification of the fluorescence intensity in the different experimental conditions in 2(a) to 2(f).

Substance: Aβ1-42: synthetic beta-amyloid peptide 1-42 (Bachem or Anaspec), SEQ ID NO: 4
- priming: [Ca^2+]i response to subsequent acute 1 μM Aβ1-42 after overnight preincubation with the peptide [1]: amplified
- fluorescent signal of bound Aβ oligomers after acute application only ([2]; acute application of 1 μM, no preincubation): No significant fluorescent signal
- fluorescent signal of bound Aβ oligomers, chronic preincubation associated to acute stimulation ([2]; chronic preincubation plus acute stimulation): a clear signal was observed
- fluorescent signal of bound Aβ oligomers after preincubation only ([2]; preincubation with 10 or 50 nM, no acute application): No significant fluorescent signal
